# In patent US9334280B2, “Synthetic rigidin analogues as anticancer agents, salts, solvates and prodrugs thereof, and method of producing same” (New Mexico Technical Research Foundation, priority 2012, dated 2016):
# Where two headings read alike, the source gives them in different places.
# Assays:
# HeLa cells = experiment: Flow cytometric cell cycle analysis (Vybrant Orange); type: cell-based, human; conditions: 0.1 μM, 24 h
# Experimental: To assess the effects of the analogues on the cell cycle, cell cycle analysis was performed. 70-80% confluent HeLa cells were trypsinized and seeded at an initial density of 2×10^5 cell per well into 6 well plates in DMEM supplemented with 10% FBS, 100 mg/L penicillin G and 100 mg/L streptomycin. The cells were allowed to adhere overnight and before treatment with compounds of Formula I at concentrations ranging from 0.1 to 10 microM. After 24 hrs, the cells were washed 3× with DMEM, trypsinized, pelleted, and re-suspended in 200 microL of culture medium containing 10 microM (2 microL/mL) vybrant orange dye. The samples in the labeling solution were transferred into Falcon tubes and incubated in a water bath for 30 mins at 37° C. The samples were then analyzed using a Becton Dickinson FACscan flow cytometer with CellQuest software. A 488 nm laser was utilized using parameters that can be found in Appendix B; 10,000 events were collected for analysis. Cells treated with 0.1% DMSO were used as a negative control and cells treated with colchicine were used as a positive control.
# In further anticancer evaluation of compounds of Formula I cell cycle analysis was performed using the cell permeable DNA binding dye Vybrant Orange. In a normal population, cells are distributed among the three major phases of the cell cycle, G0/G1 in which there is one set of paired chromosomes per cell (2n), followed by the S or synthesis phase in which DNA is synthesized in preparation for division (there is a variable amount of DNA present during this phase) and finally G2/M phase in which the chromosomes of each cell have now been duplicated (4n). This DNA content can be measured using fluorescent DNA selective probes such as Vybrant Orange that produce signals that are proportional to DNA mass per cell. This dye interacts with double stranded DNA (dsDNA) in living cells and becomes fluorescent upon binding and thus can be used to track DNA content as cells progress through the various phases of the cell cycle using flow cytometry. Cell cycle analysis was performed on HeLa cells using Rig8 at various concentrations above and below the respective GI50. Since colchicine is a known antimitotic drug, it was utilized as a positive control, while HeLa cells treated with 0.1% DMSO were used as a negative control. FIG. 6 illustrates the results of this analysis using Rig 8 on HeLa cells.
# HeLa and MCF-7 cells = experiment: MTT antiproliferative activity, statements for HeLa and MCF-7; type: cell-based, human; conditions: HeLa and MCF-7, 48 h
# Experimental: (§1) To evaluate antiproliferative properties of the compounds of Formula I, mitochondrial dehydrogenase activities were measured using the MTT assay. The cell lines were prepared by trypsinizing and seeding […] cells per well into microplates. All compounds were reconstituted in dimethyl sulfoxide (DMSO) at a concentration of either 100 mM or 25 mM prior to treatment. The cells were grown for 24 hrs before treatment at concentrations ranging from 0.004 to 100 microM and incubated for 48 hrs in 200 microL media. 20 microL of MTT reagent in serum free medium (5 mg/mL) was added to each well and incubated further for 2 hrs. Media was removed and the resulting formazan crystals were re-solubilized in 100 microL of DMSO and the optical density (OD) was measured using a Thermomax Molecular Device plate reader at a wavelength of 490 nm. The experiments were performed in quadruplicate and repeated at least twice for each compound per cell line. Cells treated with 0.1% DMSO were used as a negative control, while phenyl arsine oxide (PAO) was used as a positive killing control.
# The obtained compounds were evaluated for antiproliferative activities using the HeLa cell line as a model for human cervical adenocarcinoma and MCF-7 cells as a model for breast adenocarcinoma. The cells were treated with each compound for 48 h, and cell viability was assessed using the MTT method (Table 5).
# (§2) To evaluate antiproliferative properties of the synthesized compounds, the MTT assay was used. The cell lines were assessed by trypsinizing each cell line and seeding 4×10^3 cells per well into 96-well plates. All compounds were dissolved in DMSO at a concentration of either 100 mM or 50 mM prior to cell treatment. The cells were grown for 24 h and then treated with compounds at concentrations ranging from 0.04 to 100 μM and incubated for 48 h in 200 μL media. 20 μL of MTT reagent in serum free medium (5 mg/mL) was added to each well and incubated further for 2 h. Media was removed, and the resulting formazan crystals were re-solubilized in 200 μL of DMSO. A490 was measured using a Thermomax Molecular Device plate reader. The experiments were performed in quadruplicate and repeated at least twice for each compound per cell line. Cells treated with 0.1% DMSO were used as a control, and 1 μM phenyl arsine oxide (PAO) was used as a positive killing control.
# [1] = system: HeLa cervical adenocarcinoma cells; experiment: MTT antiproliferative assay, HeLa; type: cell-based; conditions: Homo sapiens, MTT, ± SD
# Experimental: (§3) Human T-cell leukemia cell line Jurkat (ATCC TIB-152, E6-1 clone) was cultured in RPMI-1640 (Invitrogen) supplemented with 10% FBS (Invitrogen), 100 mg/L penicillin G, 100 mg/L streptomycin, 1.0 mM sodium pyruvate, 1.5 g/L sodium bicarbonate, and 4.5 g/L glucose (all from Sigma). Human cervical cancer cell line HeLa (ATCC S3) was cultured in DMEM (Invitrogen) supplemented with 10% FBS, 100 mg/L penicillin G, and 100 mg/L streptomycin. MCF-7 (human mammary carcinoma) cells were cultured in DMEM supplemented with 1.0 mM sodium pyruvate, 1% GlutaMax™-1 (Invitrogen), 100 μg/mL penicillin, 100 μg/mL streptomycin, and 10% FBS. Human uterine sarcoma MES-SA and MES-SA/Dx5 cells were cultured in RPMI-1640 medium supplemented with 10% FBS, 100 mg/L penicillin G and 100 mg/L streptomycin. All cells were incubated at 37° C. in a humidified atmosphere with 5% CO2. The other cell lines were maintained in a similar fashion as previously described.
# as §1
# (§4) Human cancer cell lines were obtained from the American Type Culture Collection (ATCC, Manassas, Va., USA), the European Collection of Cell Culture (ECACC, Salisbury, UK) and the Deutsche Sammlung von Mikroorganismen and Zellkulturen (DSMZ, Braunschweig, Germany). Human cervical adenocarcinoma HeLa cells were cultured in DMEM supplemented with 10% fetal bovine serum (FBS). Human mammary carcinoma MCF-7 cells were cultured in RPMI supplemented with 10% FBS. The U87 and U373 cells were cultured in DMEM culture medium (Lonza code 12-136F, Vervier, Belgium), while the SKMEL-28 and A549 cells were cultured in RPMI culture medium (Lonza; code 12-115F) supplemented with 10% heat-inactivated FBS (Lonza, FBS South America code DE14-801F). […] All cell lines were cultured in T25 flasks, maintained and grown at 37° C., 95% humidity, 5% CO2.
# as §2
# [2] = system: MCF-7 mammary gland adenocarcinoma cells; experiment: MTT antiproliferative assay, MCF-7; type: cell-based; conditions: Homo sapiens, MCF7, 48 h, MTT, ± SD
# Experimental: as §3, §1, §4, §2
# U-87 glioblastoma cells = experiment: MTT antiproliferative assay, U-87; type: cell-based; conditions: Homo sapiens, Table 6, 48 h, ± SD, read-out: GI50 in vitro Values, U-87
# Experimental: as §4, §2
# [3] = system: A549 non-small-cell lung cancer cells; experiment: MTT antiproliferative assay, A549; type: cell-based; conditions: Homo sapiens, Table 6, 48 h, ± SD, read-out: GI50 in vitro Values, A549
# Experimental: as §1, §4, §2
# [4] = system: MES-SA/Dx5 uterine sarcoma cells (overexpress p-gp); experiment: MTT antiproliferative assay, MDR MES-SA/Dx5; type: cell-based, human; conditions: MES-SA/Dx5 vs MES-SA
# Experimental: as §3, §1
# The cells of such tumors are referred to as multidrug resistant (MDR). Thus, we assessed the compounds of Formula I for antiproliferative activity in an MDR cancer cell line. This was done using the uterine sarcoma cells, MES-SA/Dx5, which overexpress p-gp. The parental drug-responsive MES-SA cell line was used as control.
# [5] = Table 5, 48 h, read-out: cell viability GI50, HeLa
# [6] = Table 5, read-out: cell viability GI50, MCF-7
# [7] = Table 6, 48 h, read-out: GI50 in vitro Values, HeLa
# [8] = Table 6, read-out: GI50 in vitro Values, MCF-7
SMILES,"GI50 [1, 5]","GI50 [2, 6]",GI50 (U-87 glioblastoma cells),GI50 [3],"GI50 [1, 7]","GI50 [2, 8]",antiproliferative activity (potency in words) (HeLa and MCF-7 cells),other results
"COc1cc2c(c(OC)c1OC)-c1ccc(OC)c(=O)cc1[C@@H](NC(C)=O)CC2 [Colchicine, reference compound]",–,–,–,–,–,–,–,"% Relative DNA Content, G0/G1 (HeLa cells): 28.7 ± 1.2%; % Relative DNA Content, G2/M (HeLa cells): 53.6 ± 1.3%; % Relative DNA Content, S (HeLa cells): 15.7 ± 1.9%"
O=C(c1ccccc1)c1[nH]c2[nH]c(-c3ccccn3)nc(=O)c2c1-c1ccccc1 [Compound 5],2.7 ± 0.2 µM,2.5 ± 0.3 µM,–,–,–,–,double to single digit micromolar,–
O=C(c1ccccc1)c1[nH]c2[nH]c(-c3ccco3)nc(=O)c2c1-c1ccccc1 [Compound 6],18.4 ± 1.8 µM,23.1 ± 0.5 µM,–,–,–,–,double to single digit micromolar,–
CCOc1nc(=O)c2c(-c3ccccc3)c(C(=O)c3ccccc3)[nH]c2[nH]1 [Compound 8],11.1 ± 0.4 µM,10.4 ± 0.8 µM,–,–,–,–,double to single digit micromolar,–
CC(C)c1nc(=O)c2c(-c3ccccc3)c(C(=O)c3ccccc3)[nH]c2[nH]1 [Compound 9],9.1 ± 0.3 µM,8.3 ± 0.8 µM,–,–,–,–,double to single digit micromolar,–
"CC(=O)O[C@H]1C(=O)[C@@]2(C)[C@H]([C@H](OC(=O)c3ccccc3)[C@]3(O)C[C@H](OC(=O)[C@H](O)[C@@H](NC(=O)c4ccccc4)c4ccccc4)C(C)=C1C3(C)C)[C@]1(OC(C)=O)CO[C@@H]1C[C@@H]2O [Taxol, reference compound]",–,–,–,–,–,–,–,times less potent against the MDR cells compared with the parental MES-SA cells [4]: ca. 1000 times
"CC[C@]1(O)C[C@@H]2CN(CCc3c([nH]c4ccccc34)[C@@](C(=O)OC)(c3cc4c(cc3OC)N(C)[C@H]3[C@@](O)(C(=O)OC)[C@H](OC(C)=O)[C@]5(CC)C=CCN6CC[C@]43[C@@H]65)C2)C1 [Vinblastine, reference compound]",–,–,–,–,–,–,–,times less potent against the MDR cells compared with the parental MES-SA cells [4]: ca. 1000 times

# Further lines, with some results ahead:
"GI50 [1, 5]","GI50 [2, 6]",GI50 (U-87 glioblastoma cells),GI50 [3],"GI50 [1, 7]","GI50 [2, 8]",SMILES,antiproliferative activity (potency in words) (HeLa and MCF-7 cells),other results
0.029 ± 0.001 µM,0.035 ± 0.003 µM,0.077 ± 0.002 µM,0.25 ± 0.01 µM,0.029 ± 0.001 µM,0.035 ± 0.003 µM,"Cc1nc(=O)c2c(-c3ccccc3)c(C(=O)c3ccccc3)[nH]c2[nH]1 [Compound 13, 6-Benzoyl-2-methyl-5-phenyl-1H-pyrrolo[2,3-d]pyrimidin-4(7H)-one]",nanomolar,–
–,0.045 ± 0.001 µM,–,–,–,–,"C#CCCCc1nc(=O)c2c(-c3ccccc3)c(C(=O)c3ccccc3)[nH]c2[nH]1 [Compound 17, 6-Benzoyl-2-(pent-4-ynyl)-5-phenyl-1H-pyrrolo[2,3-d]pyrimidin-4(7H)-one]",nanomolar,–
–,–,0.9 ± 0.16 µM,0.6 ± 0.23 µM,0.27 ± 0.01 µM,0.23 µM,"Cc1nc(=O)c2c(-c3cccc(Cl)c3)c(C(=O)c3ccccc3)[nH]c2[nH]1 [Compound 18, 6-Benzoyl-5-(3-chlorophenyl)-2-methyl-1H-pyrrolo[2,3-d]pyrimidin-4(7H)-one]",–,–
–,–,0.94 ± 0.12 µM,0.65 ± 0.19 µM,0.29 ± 0.01 µM,0.27 ± 0.03 µM,"Cc1nc(=O)c2c(-c3cccc(Br)c3)c(C(=O)c3ccccc3)[nH]c2[nH]1 [Compound 19, 6-Benzoyl-5-(3-bromophenyl)-2-methyl-1H-pyrrolo[2,3-d]pyrimidin-4(7H)-one]",–,–
–,–,1.7 ± 0.1 µM,1 ± 0.9 µM,0.29 ± 0.03 µM,0.36 ± 0.02 µM,"Cc1nc(=O)c2c(-c3cccc(F)c3)c(C(=O)c3ccccc3)[nH]c2[nH]1 [Compound 20, 6-Benzoyl-5-(3-fluorophenyl)-2-methyl-1H-pyrrolo[2,3-d]pyrimidin-4(7H)-one]",–,–
–,–,0.72 ± 0.06 µM,0.38 ± 0.08 µM,0.29 ± 0.01 µM,0.27 ± 0.01 µM,"Cc1nc(=O)c2c(-c3cc(Br)cc(Br)c3)c(C(=O)c3ccccc3)[nH]c2[nH]1 [Compound 23, 6-Benzoyl-5-(3,5-dibromophenyl)-2-methyl-1H-pyrrolo[2,3-d]pyrimidin-4(7H)-one]",–,–
